Values joined by “and” are separate entries in the source; they are usually repeats but may differ in a detail not shown here. Identical values can stand only once. “Also recorded” adds a separate entry of the source.
Key:
[1] = test system: Rheb^CA-expressing neurons; assay: Cell placement, soma size and dendrite (Sholl) analysis in Rheb^CA mouse model of FCM; type: in vivo, CD-1 mice
Procedure: (§1) All experiments were performed on CD-1 mice (Charles River) of either sex.
(§2) Each DNA plasmid was diluted in sterile PBS (pH 7.4). Timed pregnant mice (embryonic day, E15) were anesthetized with isoflurane. After exposing the uterine horns, ˜1.5 μl of DNA solution, containing 0.1% fast green added as an injection tracer, was injected into the lateral ventricle via a pulled glass capillary. PBS-soaked tweezer-type electrodes (model 520, BTX) were then positioned on the head of the fetuses across the uterine wall and 6 square-pulses at […] and 50 ms duration every 950 ms were applied using a pulse generator (ECM830, BTX). At birth, mice were prescreened for successful electroporation by detecting the expression of fluorescent protein markers on a fluorescence-enabled stereo microscope (SZX16, Olympus). Morphology and seizure data in different conditions (Flna vs Luciferase shRNA or vehicle vs PTI-125 treatment) were compared between littermate mice. For most experiments, mice received unilateral electroporation, except for experiments in FIG. 4F (P8-P65 PTI-125 treatment on seizures) for which mice received bilateral electroporation.
(§3) Mice: Mice were transcardially perfused with PBS followed by 4% paraformaldehyde. Brains were then dissected and post-fixed in 4% paraformaldehyde for 24 hours before being transferred to a solution of 3% agarose solution in PBS. These were then sectioned coronally on a vibratome at a thickness of 50 μm. For immunofluorescence, free-floating sections were incubated for 1 hour in a blocking solution (2% bovine serum albumin and 0.1% Triton-X in PBS) at room temperature and then incubated with primary antibodies (Table 5) overnight at 4° C. Sections were washed with PBS+0.05% Tween 20 and then placed in blocking solution containing secondary antibodies for 1 hour at room temperature. All images were taken using an FV1000 confocal microscope (Olympus).
(§4) Quantification of the number of layer 2/3 neurons in the anterior cingulate cortex, the boundary between layer 2/3 and layer 5 was determined using ER81 staining, which labels layer 5 (FIGS. 14A-14B)Soma size was quantified by outlining the soma of GFP+ cells and measuring the area using ImageJ. Intensity of phospho-S6 and FLNA in sections was quantified by outlining somas of cells and measuring the mean gray value. Then, the values in electroporated cells (in mice) or SMI-311-positive cells (in humans) were normalized to those in non-electroporated cells or unstained cells surrounding electroporated cells to control for variability of staining between sections.
To analyze neuronal morphology and, in particular dendritic trees, only a few neurons per section were labeled using a Cre-based strategy as previously reported. More specifically, an inducible DsRed2 vector (pCAG-LoxP-stop-LoxP-DsRed2, pCALNL-DsRed2) combined with a Cre vector (pCAG-Cre) was used at very low concentration (1 ng/μl). The Cre plasmid led to DsRed expression in only 3-5 neurons per slice allowing to cleanly analyze the dendritic morphology of individual neurons (FIGS. 15A-15C)Images of DsRed-expressing basal dendrites were acquired in coronal sections using a Fluoview 1000 confocal microscope with a 20× objective. Basal dendrites were traced with simple neurite tracer software (FIJI and Neuronstudio). Sholl analyses were carried out using the number of intersections in 10-μm-increment concentric circles as a measure of morphological complexity. Z stacks from three different square fields of view were taken from three different sections. Analysis was performed blindly with more than four animals and more than 20 cells per condition (see Table 3 for actual n number).
(§5) PTI-125 was dissolved in saline at a concentration of 2.4 mg/ml. Mice received two intraperitoneal injections of 6 or 12 mg/kg PTI-125 every day. Saline was used as vehicle treatment.

[2] = test system: Rheb^CA-expressing mice; assay: Video-EEG recording of seizures in Rheb^CA-expressing mice; type: in vivo, CD-1 mice
Procedure: as §1
as §2, with “Olympus).” for “Olympus). Morphology and seizure data in different conditions (Flna vs Luciferase shRNA or vehicle vs PTI-125 treatment) were compared between littermate mice. For most experiments, mice received unilateral electroporation, except for experiments in FIG. 4F (P8-P65 PTI-125 treatment on seizures) for which mice received bilateral electroporation.”
Mice were anesthetized with isoflurane and positioned on a stereotaxic frame using ear bars. A rostro-caudal midline incision was made in the skin to expose the skull surface. Four pilot holes (two bilateral holes 1 mm anterior to bregma and two bilateral holes 5 mm posterior to bregma, each 1.5 mm lateral to sagittal suture), was tapped through the skull to dura using a microdrill (Roboz Surgical Instrument, #RS6300). […] Silver conductive paint (Electron Microscopy Science) was applied around the screw threads to ensure a solid connection with the headmount. The entire implant was insulated using dental acrylic. Mice were allowed to recover in their home cage for seven days before video-EEG monitoring.
Mice were housed in individual recording chambers in a light-, temperature- and humidity-controlled room during video-EEG monitoring. Mice were freely moving inside the chambers and had ad libitum access to food and water. Synchronous video-EEG recording was acquired using a three-channel EEG tethered system (Pinnacle Technology, cat. no. 8200-K1-iSE3) and Sirenia Acquisition software (Pinnacle Technology). Mice were continuously recorded 24 hours/day for 5-6 consecutive days or 31-45 days.
Seizure frequency and duration were analyzed using Sirenia Seizure Basic software (Pinnacle Technology). All analyses were performed blinded to experimental groups by at least two investigators. The entire EEG traces were manually reviewed for the occurrence of seizures, defined as a sudden onset of high amplitude activity with a characteristic pattern of progressive frequency and amplitude changes over the course of the event lasting≥10 sec. Seizure onset was defined by high amplitude firing>2× baseline and seizure termination was defined by a return to baseline activity. Video data were inspected for behavioral correlates including myoclonic jerks, tonic-clonic activities, convulsions, and loss of postural control (rearing and falling) and were used as secondary verification of seizures. For each individual animal, mean number of seizures per day was obtained by dividing the total number of seizures by the total number of recording hours and multiplied by 24.
Saline was used as vehicle treatment.

[3] = test system: phospho-S6; assay: Phospho-S6 (read-out of mTORC1 activity) immunostaining / immunoblot in mouse cortex; type: in vivo, CD-1 mice
Procedure: as §3, §4
Human and mouse samples were lysed in RIPA buffer (Thermo fisher, #89900) with protease/phosphatase inhibitor cocktail (Cell Signaling Technology, #5872), 5 mM EDTA, and 20 units/ml DNase I (Roche). All lysates were run on Tris-glycine gels (Bio-Rad, #456-1086 for mouse samples and #456-1046 for human samples). Proteins were transferred to PVDF and blocked in 5% milk and incubated with primary antibodies (concentrations of primary antibody are listed in Table 5). HRP-conjugated anti-rabbit or anti-mouse were used as secondary antibodies. Phosphorylated and total proteins were blotted on the same membrane after stripping (Thermo fisher, #21059). […]

[4] = Body weight during treatment of Rheb^CA mice; type: in vivo, CD-1 mice; settings: 12 mg/kg i.p. twice daily, P8-P60
Procedure: as §1, §5

[5] = target: native FLNA (Homo sapiens, UniProt P21333); settings: reported; cited from earlier work
native FLNA, sequence (P21333 whole entry, species assumed): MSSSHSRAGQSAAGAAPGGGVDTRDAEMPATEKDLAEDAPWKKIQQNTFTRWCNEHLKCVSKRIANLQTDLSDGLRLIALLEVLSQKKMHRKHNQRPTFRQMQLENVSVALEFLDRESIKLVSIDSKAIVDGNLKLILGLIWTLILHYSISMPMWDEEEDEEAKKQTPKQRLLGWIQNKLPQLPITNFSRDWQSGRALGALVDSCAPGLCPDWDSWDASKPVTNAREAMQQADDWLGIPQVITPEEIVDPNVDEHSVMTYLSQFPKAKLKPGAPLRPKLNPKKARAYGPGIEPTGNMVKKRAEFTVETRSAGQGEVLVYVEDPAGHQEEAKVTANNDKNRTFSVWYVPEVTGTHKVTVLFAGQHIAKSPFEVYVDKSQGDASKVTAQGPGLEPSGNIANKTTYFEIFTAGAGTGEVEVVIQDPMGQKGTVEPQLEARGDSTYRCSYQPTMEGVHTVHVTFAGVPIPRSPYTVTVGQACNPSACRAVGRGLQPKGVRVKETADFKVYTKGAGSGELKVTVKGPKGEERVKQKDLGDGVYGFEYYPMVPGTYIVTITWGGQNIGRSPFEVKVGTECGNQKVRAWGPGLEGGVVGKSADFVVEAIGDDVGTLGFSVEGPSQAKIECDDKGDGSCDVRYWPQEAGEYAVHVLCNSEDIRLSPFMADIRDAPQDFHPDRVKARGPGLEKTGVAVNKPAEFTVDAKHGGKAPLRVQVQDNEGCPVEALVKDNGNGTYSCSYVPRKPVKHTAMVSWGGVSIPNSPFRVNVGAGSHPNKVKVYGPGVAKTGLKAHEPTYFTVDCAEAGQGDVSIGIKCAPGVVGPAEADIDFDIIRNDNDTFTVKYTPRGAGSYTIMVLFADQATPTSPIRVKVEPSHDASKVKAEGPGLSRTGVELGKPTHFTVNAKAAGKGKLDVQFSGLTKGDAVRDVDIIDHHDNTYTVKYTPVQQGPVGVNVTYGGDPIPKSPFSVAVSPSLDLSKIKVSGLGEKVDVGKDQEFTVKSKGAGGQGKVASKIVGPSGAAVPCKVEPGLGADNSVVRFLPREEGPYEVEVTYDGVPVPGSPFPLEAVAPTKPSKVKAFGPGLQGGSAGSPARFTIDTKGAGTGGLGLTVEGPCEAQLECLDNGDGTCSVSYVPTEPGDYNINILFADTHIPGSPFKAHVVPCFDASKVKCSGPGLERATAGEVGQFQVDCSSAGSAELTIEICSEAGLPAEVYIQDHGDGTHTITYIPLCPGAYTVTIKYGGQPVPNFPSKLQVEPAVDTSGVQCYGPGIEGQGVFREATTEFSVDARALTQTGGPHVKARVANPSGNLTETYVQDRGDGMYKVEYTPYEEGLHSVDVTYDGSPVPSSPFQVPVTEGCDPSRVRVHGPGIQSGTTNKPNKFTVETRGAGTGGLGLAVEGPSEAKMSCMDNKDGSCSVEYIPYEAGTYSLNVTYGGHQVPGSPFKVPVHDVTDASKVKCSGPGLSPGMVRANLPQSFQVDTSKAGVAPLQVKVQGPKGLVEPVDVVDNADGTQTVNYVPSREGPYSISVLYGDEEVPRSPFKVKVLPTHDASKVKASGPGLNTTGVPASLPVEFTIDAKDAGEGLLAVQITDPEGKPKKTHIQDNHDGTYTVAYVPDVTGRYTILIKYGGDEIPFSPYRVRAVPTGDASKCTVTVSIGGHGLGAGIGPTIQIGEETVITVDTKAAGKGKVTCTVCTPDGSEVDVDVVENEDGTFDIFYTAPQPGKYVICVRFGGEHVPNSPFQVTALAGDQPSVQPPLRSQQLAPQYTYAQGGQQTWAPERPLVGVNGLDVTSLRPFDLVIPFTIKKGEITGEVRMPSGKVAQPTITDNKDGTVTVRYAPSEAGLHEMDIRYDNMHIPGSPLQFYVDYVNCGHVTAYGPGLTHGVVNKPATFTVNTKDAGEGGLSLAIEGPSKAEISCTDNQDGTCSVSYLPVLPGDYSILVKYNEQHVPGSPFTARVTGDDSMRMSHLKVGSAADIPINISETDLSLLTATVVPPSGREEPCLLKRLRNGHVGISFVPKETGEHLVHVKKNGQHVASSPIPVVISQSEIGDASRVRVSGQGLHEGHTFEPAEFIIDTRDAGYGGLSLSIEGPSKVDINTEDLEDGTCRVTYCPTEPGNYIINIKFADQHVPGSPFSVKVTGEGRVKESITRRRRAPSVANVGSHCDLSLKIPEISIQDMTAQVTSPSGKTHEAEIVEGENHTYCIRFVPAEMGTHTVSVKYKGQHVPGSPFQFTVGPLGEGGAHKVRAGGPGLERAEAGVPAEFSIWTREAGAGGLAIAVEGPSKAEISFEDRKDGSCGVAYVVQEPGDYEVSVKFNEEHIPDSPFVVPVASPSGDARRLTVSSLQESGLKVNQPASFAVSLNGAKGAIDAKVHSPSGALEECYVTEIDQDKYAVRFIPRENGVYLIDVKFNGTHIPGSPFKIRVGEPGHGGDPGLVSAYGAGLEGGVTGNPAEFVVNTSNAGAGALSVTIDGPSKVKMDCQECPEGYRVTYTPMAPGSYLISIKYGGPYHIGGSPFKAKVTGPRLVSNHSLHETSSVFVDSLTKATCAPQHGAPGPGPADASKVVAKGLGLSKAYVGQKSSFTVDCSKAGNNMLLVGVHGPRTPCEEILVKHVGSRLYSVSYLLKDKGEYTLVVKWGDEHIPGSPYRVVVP

[6] = target: aberrant FLNA in Alzheimer's disease (Homo sapiens, UniProt P21333); settings: reported; cited from earlier work
aberrant FLNA in Alzheimer's disease, sequence (P21333 whole entry): as the sequence (P21333 whole entry, species assumed) above

[7] = test system: seizures in individuals with TSC or FCDII; settings: clinical trial, cited from earlier work
[8] = test system: Neuro2a cells; assay: S6 phosphorylation immunoblot in transfected Neuro2a cells; type: cell-based; settings: in vitro, Neuro2a cells transfected with shRNA
Procedure: Neuro2a cells were grown at 37° C. with 5% CO2 in a complete media consisting of high glucose DMEM (Gibco, #11965-092), 5% heat-inactivated fetal bovine serum (Gibco, #16140071), and 1% penicillin-streptomycin. Cells were plated in 12 well culture plates (Corning, #0720082) and transfected when they reached ˜70% confluence. Transfection was done using PolyJet transfection reagent (Signagen, SL100688) according to the manufacturer's instructions. Cells were lysed 72 hours after transfection for all experiments.
Human and mouse samples were lysed in RIPA buffer (Thermo fisher, #89900) with protease/phosphatase inhibitor cocktail (Cell Signaling Technology, #5872), 5 mM EDTA, and 20 units/ml DNase I (Roche). All lysates were run on Tris-glycine gels (Bio-Rad, #456-1086 for mouse samples and #456-1046 for human samples). Proteins were transferred to PVDF and blocked in 5% milk and incubated with primary antibodies (concentrations of primary antibody are listed in Table 5). HRP-conjugated anti-rabbit or anti-mouse were used as secondary antibodies. Phosphorylated and total proteins were blotted on the same membrane after stripping (Thermo fisher, #21059). All density measurements were performed using NIH Image J software. In the case where cross-blot normalization was required a reference sample was loaded on each gel to account for inter-gel variability (FIGS. 11A-11B).

[9] = 6 mg/kg i.p. twice daily, P8 to P28
[10] = 12 mg/kg i.p. twice daily, P8 to P28
[11] = treatment after seizure onset, P29 to P54

With `CN1CCC2(CC1)NCC(=O)N2Cc1ccccc1` [PTI-125] as the compound, how does the dendritic dysmorphogenesis [1, 9] read?
Its dendritic dysmorphogenesis is “partially rescued”.

And the neuronal soma size [1, 9]?
Its neuronal soma size is “partially rescued”.

And the dendritic dysmorphogenesis [1, 10]?
Its dendritic dysmorphogenesis is “partially rescued”.

And the neuronal soma size [1, 10]?
Its neuronal soma size is “partially rescued”.

And the dendritic dysmorphogenesis [1, 11]?
Its dendritic dysmorphogenesis is “partially, but significantly, rescued”.

What about the increased soma size [1, 11] of the same compound?
Its increased soma size is “partially, but significantly, rescued”.

And the “cell misplacement (neuronal placement)” value ([1]; treatment starting at P8, 12 mg/kg, brain sections from recorded mice)?
The value was “not affected; also recorded: did not rescue”.

What about the seizure frequency ([2]; 12 mg/kg i.p. twice daily P8-P65, recorded P61 to P66, vehicle 5.1) of the same compound?
Its seizure frequency is 1.4 seizures/day.

What about the “Number of mice without/with seizures per condition” value ([2]; FIG. 6A, all treatments combined, vehicle 3/29) of the same compound?
The value was 11/32.

And the “overall reduction in seizure frequency compared to vehicle-treated littermates” value ([2]; all PTI-125 treatments combined (n=32 vs n=27))?
The value was 66%.

What about the seizure-free mice ([2]; all PTI-125 treatments combined, vehicle 11%) of the same compound?
The seizure-free mice was 35%.

What about the “lowering of seizure frequency compared to vehicle-treated mice” value ([2]; treatment P29 to P54, recorded P50-P54) of the same compound?
Its value is 69% and 67%.

What about the seizure frequency ([2]; treatment P29 to P54, recorded P50-P54, vehicle 2.7) of the same compound?
The seizure frequency was 0.84 seizures/day.

And the “reduction of seizure frequency” value ([2]; treatment prior to seizure onset, 12 mg/kg P8-P65, vs vehicle)?
The value was 73%.

What about the “reduction in seizure frequency prior to vs after treatment in the same mice” value ([2]; young adult mice (P61-P106), 33-day treatment) of the same compound?
The value was 60%.

What about the “change of seizure frequency over time” value ([2]; young adult mice switched from vehicle to PTI-125 after 12 days of recordings, 20-day treatment) of the same compound?
Its value is “did not have the increase in seizure frequency observed in the vehicle group”.

What about the mean seizure frequency ([2]; young adult mice, after 33-day treatment, 3.9 prior to treatment) of the same compound?
Its mean seizure frequency is 1.6 seizures/day.

What about the “phospho-S6 expression in the cortex” value ([3]; nonelectroporated mice, 12 mg/kg) of the same compound?
The value was “not affected”.

And the “phospho-S6 intensity in brain sections” value ([3]; recorded Rheb^CA mice, 12 mg/kg P8-P65)?
Its value is “not affected”.

And the body weight [4]?
The body weight was “did not affect”.

What about the “affinity for native FLNA” value [5] of the same compound?
The value was “picomolar”.

And the “affinity for aberrant FLNA in Alzheimer's disease” value [6]?
The value was “femtomolar”.

Which results are given for `CO[C@H]1C[C@@H]2CC[C@@H](C)[C@@](O)(O2)C(=O)C(=O)N2CCCC[C@H]2C(=O)O[C@H]([C@H](C)C[C@@H]2CC[C@@H](OCCO)[C@H](OC)C2)CC(=O)[C@H](C)/C=C(\C)[C@@H](O)[C@@H](OC)C(=O)[C@H](C)C[C@H](C)/C=C/C=C/C=C/1C` [everolimus]?
patients with reduced seizure frequency ([7]; highest dose): 40%; patients who saw no improvements [7]: 60%; side-effects [7]: had side-effects

With “Flna shRNA: short hairpin RNA against Flna, expressed from plasmid; sequence 5′ CCTATGAAGCTGGAACCTATA 3′ (expressed from plasmid pCGLH)” as the compound, how does the total dendritic length ([1]; Rheb^CA neurons co-expressing shRNA by E15 IUE, P28, 194% with control shRNA) read?
Its total dendritic length is 130 % of control.

What about the soma size ([1]; Rheb^CA neurons co-expressing shRNA by E15 IUE, P28, 372% with control shRNA) of the same compound?
Its soma size is 250 % of control.

And the “misplaced cells (neuronal misplacement)” value ([1]; Rheb^CA neurons co-expressing shRNA by E15 IUE, analysed at P28, 50% with control shRNA, 2% in control)?
Its value is 23%.

What about the death of mice ([2]; out of 10 mice, 4 out of 16 died in the control group) of the same compound?
The death of mice was “no mice died”.

What about the “lowering of seizure frequency compared to luciferase shRNA” value ([2]; video-EEG for 5 days starting at P61) of the same compound?
The value was 83%.

And the mean seizure frequency ([2]; video-EEG for 5 days starting at P61, 12.6 with luciferase shRNA)?
The mean seizure frequency was 2.2 seizures/day.

What about the “increased phospho-S6 intensity in vivo” value ([3]; GFP+ Rheb^CA-expressing neurons in EEG-recorded mice) of the same compound?
Its value is “did not prevent”.

And the “Rheb^CA-induced increased S6 phosphorylation” value [8]?
Its value is “did not reduce”.

Source: patent publication US12186307B2, “Methods of treating epilepsy” (YALE UNIVERSITY, priority 2019, dated 2025)
